# Patent US6534496B1, “Thermogenic composition and benzazepine thermogenics” (Takeda Chemical Industries, Inc., priority 1997, dated 2003)
# Counter-ions that a name gives are not always drawn. Marks after values point to notes of the source that are not given here.
# Assays:
# [1] = Assay of reducing activity against weight gain of mice; format: in vivo, Male C57BL db/db mice
# Experimental: Male C57BL db/db mice (CLEA Japan Inc., 10 weeks old) was pretreated for 7 days, with solid feed (CLEA Japan Inc., CE-2). After acclimatization, 0.3 mg/kg or 1.0 mg/kg of the compound which, was obtained in Example 23, was oraly administrated for 6 weeks. Body weight was measured after the final administration. After the measurement, total blood was successively drawn from the orbital vain, and the visceral fat was collected and its weight was measured. Statistics analysis was carried out with Dunnett anlalysis.
# [2] = Assay of thermogenic activity in mice (Test Example 4); format: in vivo, male C57BL db/db mice; conditions: 1 mg/kg orally for 6 days; 24 hours-average regional temperature after the final administration; N=6
# Experimental: The telethermometer (VltaView™, Mini-Mitter Co., Inc., USA) was inplanted subcutaneously border on the scapulae of male C57BL db/db mice (CLEA Japan Inc., N=6) anesthetized with ether. After 7 days acclimatization, 1 mg/kg of the compound which was obtained in Example 23, was orally administrated for 6 days. The 24 hours-average regional temperature after the final administration was measured. The control was administrated 0.5% methylcellulose solution.
# [3] = system: murine preadipocyte line (3T3-L1); assay: Assay of intraadipocyte cAMP increasing activity using murine preadipocyte line (3T3-L1) (Test Example 3, compounds of the Examples); format: cell-based; conditions: Table 14
# Experimental: The intraadipocyte cAMP concentration-increasing activity of the above compound (I) was determined in an assay system using murine preadipocyte line 3T3-L1. Thus, 3T3-L1 preadipocytes were seeded onto a 96-well microtiter plate (10,000 cells/well) and cultured for 5-6 days until a confluent growth was formed. Thereafter, the adipocytes were further cultured for 72 hours. The test compound (I) (10^−5M, 10^−6M, 10^−7M, 10^−8M, and 10^−9M) was then added and the plate was allowed to sit at 37° C. for 40 minutes. The cells were washed with 3 portions of phosphate buffer at 4° C. (100 μl/well). Then, 0.1 N hydrochloric acid was added and the cells were denatured at 95° C. for 10 minutes. From each well, 25 μl was aspirated and dissolved in 75 μl of the assay a buffer included in Cyclic AMP Enzyme Immunoassay Kit (Kayman Chemical Company, USA). Using a 50 μl portion as the sample, cAMP was assayed using the above-mentioned Kit. Thus, using a 96-well microtiter plate precoated with anti-rabbit IgG mouse antibody, the above sample (50 μl) as well as the Cyclic AMP Tracer (50 μl) and Cyclic AMP Rabbit Antibody (50 μl) from the Kit were added and the plate was incubated at room temperature for 18 hours. After asperation, the plate was washed with 4 portions of the wash buffer (400 μl/well). Then, 200 μl of the color reagent included in the Kit was added to each well and the plate was incubated at room temperature with'shaking for 60 minutes. After completion of the reaction, the absorbance was measured at 405 nm to quantitate the cAMP.
# Each value is the mean result of 4 experiments. The test for statistical significance against the CAMP concentration of the control experiment (the test compound not added) was carried out by the known ANOVA. (* p<05 vs. control)
# Using the compounds obtained in Examples 1 through 130, as well as their salts, their intraadipocyte cAMP increasing activities were assayed by the same procedure as in Test Example 1.
# [4] = second line of Example 23, dose printed 0.3 mg/kg, orally for 6 weeks
# [5] = concentration of test compound 10^−5M
# [6] = concentration of test compound 10^−6M
# [7] = concentration of test compound 10^−7M
# [8] = concentration of test compound 10^−8M
# [9] = concentration of test compound 10^−9M
compound,measurement,setting,value
"CC(=O)N1CCC(CCC(=O)c2ccc3c(c2)CCN(Cc2ccccc2)CC3)CC1.Cl [Example 23, 3-(1-Acetyl-4-piperidinyl)-1-[3-(phenylmethyl)-2,3,4,5-tetrahydro-1H-3-benzazepin-7-yl]-1-propanone Hydrochloride]",Amount of visceral fat (average ± S.E.),[1]; 0.3 mg/kg orally for 6 weeks,5.47 ± 0.36 g
same,"Body weight, ending date of administration (average ± S.E.)",[1]; 0.3 mg/kg orally for 6 weeks,40.87 ± 1.57 g
same,"Body weight, starting date of administration (average ± S.E.)",[1]; 0.3 mg/kg orally for 6 weeks,40.21 ± 0.48 g
same,Amount of visceral fat (average ± S.E.),[1]; 1.0 mg/kg orally for 6 weeks,5.13 ± 0.39 g
same,"Body weight, ending date of administration (average ± S.E.)",[1]; [4],39.75 ± 1.55 g
same,"Body weight, starting date of administration (average ± S.E.)",[1]; [4],40.40 ± 0.69 g
same,Regional temperature,[2],35.54 °C
"Cc1ccccc1CN1CCc2ccc(C(=O)CCCC3CCN(Cc4ccccc4C)CC3)cc2CC1 [Example 127, 4-[1-[(2-Methylphenyl)methyl]-4-piperidinyl]-1-[3-[(2-methylphenyl)methyl]-2,3,4,5-tetrahydro-1H-3-benzazepin-7-yl]-1-butanone Dihydrochloride]",cAMP,[3]; [5],554.0* pmol/ml
same,cAMP,[3]; [6],100.0* pmol/ml
same,cAMP,[3]; [7],10.1* pmol/ml
same,cAMP,[3]; [8],4.7 pmol/mL
same,cAMP,[3]; [9],3.6 pmol/mL
Cc1ccccc1CN1CCc2ccc(C(=O)CCCC3CCN(Cc4cccc(Cl)c4)CC3)cc2CC1 [Example 130],cAMP,[3]; [5],430.6* pmol/ml
same,cAMP,[3]; [6],23.5* pmol/ml
same,cAMP,[3]; [7],5.7* pmol/ml
same,cAMP,[3]; [8],4.5 pmol/mL
same,cAMP,[3]; [9],3.4 pmol/mL
